Experimental data: patent US8425840B2, “Microchip and blood monitoring device” (Fujimori Kogyo Co., Ltd., priority 2007, dated 2013)

System: platelets
Assay: measurement of platelet function using the thrombus monitoring system C (microchip 4, citrated whole blood mixed with ADP under flow)
Format: cell-based
Conditions: for time after the beginning of the measurement at which an obvious platelet aggregate was formed in the thrombus formation chamber: collagen/PT reagent coated chamber
Procedure: The stirring section 413 was in the shape of a circle having a diameter of […] and narrowing in fan-like fashion in the direction toward the downstream, and its depth was 1.2 mm. The stirring bar 417 was a stirring bar in the shape of a cylinder having a length of 2 mm and a diameter of 1 mm, whose surface was coated with nickel.
As the thrombus-inducing agent, 24 μL of a mixture of collagen type I (Nitta Gelatin Inc.) and PT reagent (Sysmex Corporation) was applied in a square shape sizing 1 cm×1 cm, and dried under reduced pressure at −0.08 MPa for 3 hours. The coating with the thrombus-inducing material was carried out such that the merged channel 403 was not passing the center of the square area on which the thrombus-inducing material was applied, that is, such that the merged channel 403 was passing 2.5 mm away from an edge of the square, when the substrate 400 and the substrate 410 were bonded to each other. As the collagen type I, one having a concentration of 3 mg/ml was used. As the PT reagent, one prepared by dissolving 1 vial of PT reagent manufactured by Sysmex Corporation in 2 ml of purified water and dialyzing the resulting solution against purified water overnight, followed by mixing the resultant at a ratio of 1:1 was used.
To the blood reservoir 433, the first pump 420 was connected, and the first connection nozzle 435 and the second connection nozzle 436 were connected to the second pump 421 and the third pump 422, respectively.
Mineral oil was filled in the first pump 420; purified water and 1 μM or 2 μM ADP solution were filled in the second pump 421; and 0.5 M EDTA (pH 10) solution was filled in the third pump 422.
Blood prepared by mixing the blood immediately after collection with 3.2% sodium citrate solution at a volume ratio between the blood and the sodium citrate solution being 9:1 was filled in the blood reservoir 433.
The programs executed for the first pump 420, second pump 421 and the third pump 422 were the same with those in Example 7 (Table 3). […]

For `Nc1ncnc2c1ncn2[C@@H]1O[C@H](COP(=O)(O)OP(=O)(O)O)[C@@H](O)[C@H]1O` [ADP, adenosine diphosphate], which “time after the beginning of the measurement at which an obvious platelet aggregate was formed in the thrombus formation chamber” value (1 μM ADP solution in second pump) is on record?
The value was 15 min.

And the “increase in pressure due to platelet aggregate (pressure sensor)” value (1 μM or 2 μM ADP in second pump)?
Its value is “no increase in pressure occurred”.

And the “time after the beginning of the measurement at which an obvious platelet aggregate was formed in the thrombus formation chamber” value (2 μM ADP solution in second pump)?
The value was 10 min.
